Earlier results as cited in patent US7053240B2, “Process for synthesizing disulfides” (BioNumerik Pharmaceuticals, Inc., priority 2003, dated 2006).

How the values were obtained:
dogs = details: intravenously, doses higher than 3750 mg/kg
mice = details: intravenously, doses higher than 3750 mg/kg
[1] = accepted value

Structure (SMILES)	adverse effects (dogs)	adverse effects (mice)	oral LD50 [1]
O=S(=O)(O)CCSSCCS(=O)(=O)O [Dimesna, disodium 2,2′-dithiobis ethane sulfonate]	no adverse effects	no adverse effects	
[Cl-].[Na+] [common table salt]			3750 mg/kg
